Assay results: patent US4977175A, “4,5,6,7-tetrahydrobenzimidazole derivatives as 5HT3 -antagonists” (Yamanouchi Pharmaceutical Co., Ltd., priority 1988, dated 1990)
Where a name gives a salt, the structure may show the parent alone. Read-outs that look alike come from different tables or passages of the source.

Biological target: T1, 5-HT3 receptor (Rattus norvegicus, UniProt P35563)
T1 construct: Wistar strain male rats of 9 week age were anesthesized; from tissue; host or cells: whole anesthetized Wistar rat in vivo (endogenous receptor; cardiac vagal afferents by own knowledge)
T1 sequence (P35563 24-483): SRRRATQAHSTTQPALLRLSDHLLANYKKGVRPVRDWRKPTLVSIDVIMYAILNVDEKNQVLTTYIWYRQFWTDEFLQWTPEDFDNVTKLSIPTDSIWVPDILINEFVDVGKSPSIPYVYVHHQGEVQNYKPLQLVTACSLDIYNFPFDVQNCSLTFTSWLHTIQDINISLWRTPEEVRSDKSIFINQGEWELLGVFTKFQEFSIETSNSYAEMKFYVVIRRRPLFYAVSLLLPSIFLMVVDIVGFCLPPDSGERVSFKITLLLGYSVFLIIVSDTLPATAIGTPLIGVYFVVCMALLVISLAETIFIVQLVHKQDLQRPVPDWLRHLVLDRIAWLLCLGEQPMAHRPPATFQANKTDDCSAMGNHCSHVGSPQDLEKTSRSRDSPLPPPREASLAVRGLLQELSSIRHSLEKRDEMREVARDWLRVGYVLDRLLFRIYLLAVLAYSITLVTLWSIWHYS
Test: Inhibition of serotonin- or 2-methylserotonin-induced Bezold-Jarisch (BJ) reflex in anesthetized rats (5-HT3-antagonizing activity)
Format: in vivo, Wistar strain male rats
Conditions: serotonin-induced BJ reflex in rats, read-out: BJ Reflex Inhibitory Activity (ED50)
Experimental: Wistar strain male rats of 9 week age were anesthesized with intraperitoneally administering 1 g/kg of urethane. Under artificial respiration, blood pressure and heart rate were measured. Transient reduction in heart rate and in blood pressure induced by intravenous administration of serotonin or 2-methylserotonin which is a selective agonist of 5-HT3 was used as an index for the reaction via 5-HT3 receptor (Bezold-Jarisch reflex : Paintal, A.S., Physiol. Rev., 53, 159, 1973).
Inhibitory activity of the compounds of the present invention on serotonin-induced Bezold-Jarisch (BJ) reflex in rats is shown in the table below.

Structure (SMILES) | ED50 (iv) | ED50 (po)
COc1ccccc1NC(=O)C1CCc2[nH]cnc2C1 (racemic) [Example 1, N-(2-methyloxyphenyl) -4,5,6,7-tetrahydrobenzimidazole-5carboxamide fumarate 0.8hydrate] | 0.32 µg/kg | 5.9 µg/kg
CCOc1ccccc1NC(=O)C1CCc2nc[nH]c2C1.O=C(O)/C=C/C(=O)O (stereo not shown) [Example 13, N-(2-Ethoxyphenyl)-4,5,6,7-tetrahydrobenzimidazole-5-carboxamide fumarate] | 1.2 µg/kg | 6.6 µg/kg
